Assay results taken from US20250304623A1, “PEPTIDES FOR INTRACELLULAR DELIVERY” (UNIVERSIDADE DE SANTIAGO DE COMPOSTELA, priority 2022, published 2025).
*: point of attachment. NHNH2 = NN*

Tests used:
Assay type in all cases: cell-based
[1] = tested on: Hela cells; assay: EGFP mRNA delivery, robotic library screening, HeLa
Protocol: (§1) Cells were seeded in a 96 well plate the day before the experiment at a concentration of 50,000 cell/mL (100 μL/w) in DMEM+10% FBS+1% Gln-Abt. For robotic library screening, the delivery of EGFP-mRNA (from TriLink, fully substituted with 5-methoxyuridine, capped and polyadenylated; TriLink, CleanCap® EGFP mRNA (5moU), ref. L-7201) in six different cell lines was performed. Amphiphilic molecule stock solutions were prepared in DMSO as described above and diluted in DMEM to afford a range of concentrations. The solutions of EGFP-mRNA/amphiphilic molecule complexes were freshly prepared prior to the transfection experiments. 35 μL of the corresponding amphiphile were added to 10 μL of a solution of EGFP-mRNA at 10 ng/μL in DMEM. The mixture was shaken for 30 min at room temperature before the addition to the cells. The cell medium was aspirated, and cells were washed with PBS twice. Cells were covered with 39 μL of DMEM and 11 μL of the complex's solution were added to the cells and incubated for 4 h (final concentration of peptide=2.5, 5 and 10 μM; final concentration of EGFP-mRNA=25 ng/well). After the incubation, the medium was replaced by 100 μL of fresh DMEM supplemented with 10% FBS. The total EGFP fluorescence was quantified after 72 h in a well plate reader. Amphiphile transfection efficiency was compared and normalized to Lipofectamine® MessengerMax efficiency (value of 1 in Tables 1-5 and 7; double underlined numbers). All experiments were done in triplicate.
(§2) Tables 1-7: RLuc (pDNA) or EGFP (mRNA) expression levels were normalized to Lipofectamine reagents (value=1) and expressed as fold-times signal increase. In the case of siRNA, the siRNA treated cells fluorescence was compared with siMOCK control fluorescence, while Cas9-RNP mediated knockout was measured against the fluorescence of untreated cells. In both siRNA and Cas9-RNP, values are expressed as % fluorescence reduction. Amphiphile concentration was 5 μM in all cases. All experiments were performed in triplicate.
(§3) Tables 14-19 show the mean (triplicates) fluorescence intensity measured after the transfection of EGFP mRNA by different amphiphiles at different concentrations in a variety of cell lines. Background fluorescence values, accounted by untreated control cells, were subtracted for processing.

[2] = tested on: ARPE19 cells; assay: EGFP mRNA delivery, robotic library screening, ARPE19
Protocol: as §1, §2, §3

[3] = tested on: HepG2 cells; assay: RLuc pDNA delivery, robotic library screening, HepG2
Method in brief: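 After the 4 h exposure the complexes were replaced with fresh DMEM plus 10% FBS. At 72 hours cells were washed with HBSS, kept 30 minutes at 37° C. for basal readings, then given coelenterazine h (5 μM final) for 10 minutes before total luminescence was read. Triplicate means had untransfected background subtracted and were also expressed relative to Lipofectamine® 2000 set at 1.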

[4] = tested on: HepG2 cells; assay: EGFP mRNA delivery, robotic library screening, HepG2; conditions: HepG2 cells
Method in brief: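 This robotic library screen tested delivery of CleanCap EGFP mRNA (5moU) into HepG2 cells using amphiphilic molecules. Complexes were freshly prepared at room temperature and added to the cells, and the medium was then replaced with fresh DMEM plus 10% FBS. Total EGFP fluorescence was measured in a plate reader at 72 h in triplicate, with untreated-cell background subtracted.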

Ac-RK*LRK*K*L-NH2 (Ac-RK(NHNH2)LRK(NHNH2)K(NHNH2)L-NH2; not fully specified; printed as Ac-RK*LRK*K*L-NH2; also: K*2,K*5,K*6: native or modified lysine (ε-amide to a linker)) [Peptide 7.3]
mean fluorescence intensity (EGFP mRNA) ([1]; HeLa, Dodecanal, 2.5 μM): 6327 | mean fluorescence intensity (EGFP mRNA) ([1]; HeLa, Dodecanal, 5 μM): 4738 | mean fluorescence intensity (EGFP mRNA) ([1]; HeLa, Myristoleyl, 2.5 μM): 13591 | mean fluorescence intensity (EGFP mRNA) ([1]; HeLa, Oleyl, 5 μM): 501 | mean fluorescence intensity (EGFP mRNA) ([1]; HeLa, Petroselinyl, 2.5 μM): 9039 | mean fluorescence intensity (EGFP mRNA) ([1]; HeLa, Petroselinyl, 10 μM): 732 | mean fluorescence intensity (EGFP mRNA) ([1]; Hela, Dodecanal, 10 μM): 572 | mean fluorescence intensity (EGFP mRNA) ([1]; Hela, Myristoleyl, 10 μM): 647 | mean fluorescence intensity (EGFP mRNA) ([1]; Hela, Palmitoleyl, 10 μM): 189 | mean fluorescence intensity (EGFP mRNA) ([2]; Dodecanal, 2.5 μM): 9507 | mean fluorescence intensity (EGFP mRNA) ([2]; Dodecanal, 5 μM): 16576 | mean fluorescence intensity (EGFP mRNA) ([2]; Dodecanal, 10 μM): 6912 | mean fluorescence intensity (EGFP mRNA) ([2]; Myristoleyl, 2.5 μM): 44289 | mean fluorescence intensity (EGFP mRNA) ([2]; Myristoleyl, 5 μM): 10233 | mean fluorescence intensity (EGFP mRNA) ([2]; Myristoleyl, 10 μM): 2166 | mean fluorescence intensity (EGFP mRNA) ([2]; Oleyl, 2.5 μM): 20910 | mean fluorescence intensity (EGFP mRNA) ([2]; Oleyl, 5 μM): 4303 | mean fluorescence intensity (EGFP mRNA) ([2]; Palmitoleyl, 2.5 μM): 34422 | mean fluorescence intensity (EGFP mRNA) ([2]; Palmitoleyl, 5 μM): 7527 | mean fluorescence intensity (EGFP mRNA) ([2]; Palmitoleyl, 10 μM): 7536 | mean fluorescence intensity (EGFP mRNA) ([2]; Petroselinyl, 2.5 μM): 25416 | mean fluorescence intensity (EGFP mRNA) ([2]; Petroselinyl, 5 μM): 5810 | mean fluorescence intensity (EGFP mRNA) ([2]; Petroselinyl, 10 μM): 5129 | mean luminescent intensity (RLuc pDNA) ([3]; Dodecanal, 10 μM): 4529 RLU | mean luminescent intensity (RLuc pDNA) ([3]; Dodecanal, 15 μM): 14804 RLU | mean luminescent intensity (RLuc pDNA) ([3]; Myristoleyl, 5 μM): 109155 RLU | mean luminescent intensity (RLuc pDNA) ([3]; Myristoleyl, 10 μM): 294365 RLU | mean luminescent intensity (RLuc pDNA) ([3]; Myristoleyl, 15 μM): 241385 RLU | mean luminescent intensity (RLuc pDNA) ([3]; Palmitoleyl, 5 μM): 107745 RLU | mean luminescent intensity (RLuc pDNA) ([3]; Palmitoleyl, 10 μM): 84207 RLU | mean luminescent intensity (RLuc pDNA) ([3]; Palmitoleyl, 15 μM): 46358 RLU | mean luminescent intensity (RLuc pDNA) ([3]; Petroselinyl, 5 μM): 228306 RLU | mean luminescent intensity (RLuc pDNA) ([3]; Petroselinyl, 10 μM): 150739 RLU | mean luminescent intensity (RLuc pDNA) ([3]; Petroselinyl, 15 μM): 51938 RLU | mean fluorescence intensity after transfection of EGFP mRNA ([4]; Dodecanal, 5 μM): 1786 | mean fluorescence intensity after transfection of EGFP mRNA ([4]; Dodecanal, 10 μM): 1477 | mean fluorescence intensity after transfection of EGFP mRNA ([4]; Dodecanal, 15 μM): 952 | mean fluorescence intensity after transfection of EGFP mRNA ([4]; Myristoleyl, 5 μM): 1046 | mean fluorescence intensity after transfection of EGFP mRNA ([4]; Oleyl, 5 μM): 893 | mean fluorescence intensity after transfection of EGFP mRNA ([4]; Palmitoleyl, 5 μM): 3286 | mean fluorescence intensity after transfection of EGFP mRNA ([4]; Palmitoleyl, 10 μM): 3553 | mean fluorescence intensity after transfection of EGFP mRNA ([4]; Palmitoleyl, 15 μM): 766 | mean fluorescence intensity after transfection of EGFP mRNA ([4]; Petroselinyl, 5 μM): 4095 | mean fluorescence intensity after transfection of EGFP mRNA ([4]; Petroselinyl, 10 μM): 188 | mean fluorescence intensity after transfection of EGFP mRNA ([4]; Petroselinyl, 15 μM): 821

Ac-RK*LRRK*L-NH2 (Ac-RK(NHNH2)LRRK(NHNH2)L-NH2; not fully specified; printed as Ac-RK*LRRK*L-NH2; also: K*2,K*6: native or modified lysine (ε-amide to a linker)) [Peptide 7.2]
mean fluorescence intensity (EGFP mRNA) ([1]; HeLa, Dodecanal, 2.5 μM): 268 | mean fluorescence intensity (EGFP mRNA) ([1]; HeLa, Dodecanal, 5 μM): 341 | mean fluorescence intensity (EGFP mRNA) ([1]; HeLa, Myristoleyl, 2.5 μM): 5194 | mean fluorescence intensity (EGFP mRNA) ([1]; Hela, Dodecanal, 10 μM): 288 | mean fluorescence intensity (EGFP mRNA) ([1]; Hela, Myristoleyl, 5 μM): 654 | mean fluorescence intensity (EGFP mRNA) ([1]; Hela, Myristoleyl, 10 μM): 358 | mean fluorescence intensity (EGFP mRNA) ([2]; Dodecanal, 2.5 μM): 898 | mean fluorescence intensity (EGFP mRNA) ([2]; Dodecanal, 5 μM): 436 | mean fluorescence intensity (EGFP mRNA) ([2]; Dodecanal, 10 μM): 1046 | mean fluorescence intensity (EGFP mRNA) ([2]; Myristoleyl, 2.5 μM): 2289 | mean fluorescence intensity (EGFP mRNA) ([2]; Myristoleyl, 5 μM): 1119 | mean fluorescence intensity (EGFP mRNA) ([2]; Myristoleyl, 10 μM): 1131 | mean luminescent intensity (RLuc pDNA) ([3]; Dodecanal, 10 μM): 4114 RLU | mean luminescent intensity (RLuc pDNA) ([3]; Dodecanal, 15 μM): 1202 RLU | mean luminescent intensity (RLuc pDNA) ([3]; Myristoleyl, 5 μM): 11364 RLU | mean luminescent intensity (RLuc pDNA) ([3]; Myristoleyl, 10 μM): 23772 RLU | mean luminescent intensity (RLuc pDNA) ([3]; Myristoleyl, 15 μM): 25742 RLU | mean fluorescence intensity after transfection of EGFP mRNA ([4]; Dodecanal, 5 μM): 75 | mean fluorescence intensity after transfection of EGFP mRNA ([4]; Dodecanal, 10 μM): −468 | mean fluorescence intensity after transfection of EGFP mRNA ([4]; Dodecanal, 15 μM): 268 | mean fluorescence intensity after transfection of EGFP mRNA ([4]; Myristoleyl, 5 μM): 678 | mean fluorescence intensity after transfection of EGFP mRNA ([4]; Myristoleyl, 10 μM): 752 | mean fluorescence intensity after transfection of EGFP mRNA ([4]; Myristoleyl, 15 μM): −60

Ac-RK*LRRK*LRK*-NH2 (Ac-RK(NHNH2)LRRK(NHNH2)LRK(NHNH2)-NH2; not fully specified; printed as Ac-RK*LRRK*LRK*-NH2; also: K*2,K*6,K*9: native or modified lysine (ε-amide to a linker)) [Peptide 9.3]
mean fluorescence intensity (EGFP mRNA) ([1]; HeLa, Dodecanal, 2.5 μM): 2347 | mean fluorescence intensity (EGFP mRNA) ([1]; HeLa, Dodecanal, 5 μM): 3482 | mean fluorescence intensity (EGFP mRNA) ([1]; HeLa, Myristoleyl, 2.5 μM): 11661 | mean fluorescence intensity (EGFP mRNA) ([1]; HeLa, Oleyl, 5 μM): 441 | mean fluorescence intensity (EGFP mRNA) ([1]; HeLa, Petroselinyl, 10 μM): 1322 | mean fluorescence intensity (EGFP mRNA) ([1]; Hela, Myristoleyl, 5 μM): 2874 | mean fluorescence intensity (EGFP mRNA) ([1]; Hela, Oleyl, 10 μM): 335 | mean fluorescence intensity (EGFP mRNA) ([1]; Hela, Palmitoleyl, 5 μM): 3313 | mean fluorescence intensity (EGFP mRNA) ([1]; Hela, Petroselinyl, 5 μM): 9616 | mean fluorescence intensity (EGFP mRNA) ([2]; Myristoleyl, 2.5 μM): 5042 | mean fluorescence intensity (EGFP mRNA) ([2]; Myristoleyl, 5 μM): 1233 | mean fluorescence intensity (EGFP mRNA) ([2]; Oleyl, 5 μM): 859 | mean fluorescence intensity (EGFP mRNA) ([2]; Oleyl, 10 μM): 919 | mean fluorescence intensity (EGFP mRNA) ([2]; Palmitoleyl, 5 μM): 948 | mean fluorescence intensity (EGFP mRNA) ([2]; Petroselinyl, 5 μM): 858 | mean luminescent intensity (RLuc pDNA) ([3]; Dodecanal, 10 μM): 25099 RLU | mean luminescent intensity (RLuc pDNA) ([3]; Dodecanal, 15 μM): 21420 RLU | mean luminescent intensity (RLuc pDNA) ([3]; Myristoleyl, 5 μM): 57891 RLU | mean luminescent intensity (RLuc pDNA) ([3]; Myristoleyl, 10 μM): 244850 RLU | mean luminescent intensity (RLuc pDNA) ([3]; Myristoleyl, 15 μM): 286208 RLU | mean luminescent intensity (RLuc pDNA) ([3]; Petroselinyl, 15 μM): 50057 RLU | mean fluorescence intensity after transfection of EGFP mRNA ([4]; Myristoleyl, 15 μM): 867 | mean fluorescence intensity after transfection of EGFP mRNA ([4]; Oleyl, 5 μM): 382 | mean fluorescence intensity after transfection of EGFP mRNA ([4]; Oleyl, 10 μM): 802 | mean fluorescence intensity after transfection of EGFP mRNA ([4]; Oleyl, 15 μM): 231 | mean fluorescence intensity after transfection of EGFP mRNA ([4]; Palmitoleyl, 10 μM): 1226 | mean fluorescence intensity after transfection of EGFP mRNA ([4]; Palmitoleyl, 15 μM): 629
